Measured values reported in patent US8440830B2, “Tetrahydro-fused pyridines as histone deacetylase inhibitors” (4SC AG, priority 2007, dated 2013).

Test system: A549 NSCLC cells
Test: Cellular cytotoxicity assay (Alamar Blue), A549
Format: cell-based
Conditions: Homo sapiens, 72 h, upper end given as ≧100, read-out: IC50 (μM), cytotoxicity towards A549 NSCLC cells
Experimental: The anti-proliferative activity of the histone deacetylase inhibitory compounds as described herein, is evaluated using the following cell lines: HeLa and HeLa-KB (cervical carcinoma), H460 (non small cell lung cancer), A549 (non-small cell lung cancer), MCF7 (breast carcinoma), MCF10A (normal, non tumorigenic breast epithelial), MDA-MB468 (breast carcinoma), MDA-MB435 (breast carcinoma), MDA-MB231 (breast carcinoma), SKBR-3 (breast carcinoma), SKOV-3 (ovarial carcinoma), A-2780 (ovarial carcinoma), RKO (colon carcinoma), HCT-15 (colon carcinoma), HCT-116 (colon carcinoma), PC3 (prostate carcinoma), BPH1 (benign prostate hyperplasia), AsPC1 (pancreatic carcinoma), Ca127 (tongue carcinoma), A-431 (vulva carcinoma), Hec1A (endometrial carcinoma), Saos-2 (osteosarcoma), U87MG (glioblastoma), WM266-4 (melanoma), K562 (chronic myeloid leukemia), EOL1 (acute hypereosinophilic myeloid leukemia), CCRF-CEM and CCRF-CEM VCR1000 (acute lymphoblastic leukemia sensitive and resistant towards Vincristine). For quantification of cellular proliferation/living cells the Alamar Blue (Resazurin) cell viability assay is applied (O'Brien et al. Eur J Biochem 267, 5421-5426, 2000). In this assay Resazurin is reduced to the fluorescent resorufine by cellular dehydrogenase activity, correlating with viable, proliferating cells. The examples are dissolved as 20 mM solutions in dimethylsulfoxide (DMSO) and subsequently diluted in semi-logarithmic steps. Cell lines are seeded at respective density into 96 well flat bottom plates in a volume of 200 μl per well. 24 h after seeding 1 μl each of the compound dilutions are added into each well of the 96 well plate. Each compound dilution is tested as quadruplicates. Wells containing untreated control cells are filled with 200 μl DMEM medium containing 0.5% v:v DMSO. The cells are then incubated with the compounds for 72 h at 37° C. in a humidified atmosphere containing 5% carbon dioxide. To determine the viability of the cells, 20 μl of a Resazurin solution (Sigma; 90 mg/l) are added. After 4 h incubation at 37° C. the fluorescence is measured at an extinction of λ=544 nm and an emission of λ=590 nm. For the calculation of the cell viability the emission value from untreated cells is set as 100% viability and the emission rates of treated cells are set in relation to the values of untreated cells. Viabilities are expressed as % values. The corresponding IC50 values of the compounds for cytotoxic activity are determined from the concentration-effect curves by means of non-linear regression.

| SMILES | IC50 |
| --- | --- |
| CC(C)c1ccc(N)c(NC(=O)c2nc3c(s2)CN(C(=C[N+](=O)[O-])Nc2ccc(N(C)C)cc2)CC3)c1 [Example 147, N-(2-amino-5-isopropylphenyl)-5-[1-{[4-(dimethylamino)phenyl]amino}-2-nitrovinyl]-4,5,6,7-tetrahydro[1,3]thiazolo[5,4-c]pyridine-2-carboxamide] | ≥ 0.2 µM |
| COc1ccc(N=C(C)N2CCc3nc(C(=O)Nc4cc(C(C)C)ccc4N)sc3C2)cc1 [Example 132, N-(2-amino-5-isopropylphenyl)-5-[N-(4-methoxyphenyl)ethanimidoyl]-4,5,6,7-tetrahydro[1,3]thiazolo[5,4-c]pyridine-2-carboxamide] | ≥ 0.2 µM |
| Nc1ccccc1NC(=O)c1nc2c(s1)CN(C(=S)Nc1cccnc1)CC2 [Example 103, N-(2-aminophenyl)-5-[(pyridin-3-ylamino)carbonothioyl]-4,5,6,7-tetrahydro[1,3]thiazolo[5,4-c]pyridine-2-carboxamide] | ≥ 0.2 µM |
| CC(C)c1ccc(N)c(NC(=O)c2nc3c(s2)CN(C(=C[N+](=O)[O-])Nc2ccccc2)CC3)c1 [Example 145, N-(2-amino-5-isopropylphenyl)-5-[1-anilino-2-nitrovinyl]-4,5,6,7-tetrahydro[1,3]thiazolo[5,4-c]pyridine-2-carboxamide] | ≥ 0.2 µM |
| Cc1ccc(S(=O)(=O)N2CCc3nc(C(=O)Nc4cc(C(C)C)ccc4N)sc3C2)cc1 [Example 170, N-(2-amino-5-isopropylphenyl)-5-[(4-methylphenyl)sulfonyl]-4,5,6,7-tetrahydro[1,3]thiazolo[5,4-c]pyridine-2-carboxamide] | ≥ 0.2 µM |
| CCCCCNC(=NC#N)N1CCc2nc(C(=O)Nc3ccccc3N)sc2C1 [Example 121, N-(2-aminophenyl)-5-[(cyanoimino)(pentylamino)methyl]-4,5,6,7-tetrahydro[1,3]thiazolo[5,4-c]pyridine-2-carboxamide] | ≥ 0.2 µM |
| COc1ccc(NC(=C[N+](=O)[O-])N2CCc3nc(C(=O)Nc4cc(C(C)C)ccc4N)sc3C2)cc1 [Example 146, N-[2-amino-5-(1-methylethyl)phenyl]-5-{1-[(4-methoxyphenyl)amino]-2-nitroethenyl}-4,5,6,7-tetrahydro[1,3]thiazolo[5,4-c]pyridine-2-carboxamide] | ≥ 0.2 µM |
| CC(=Nc1ccc(N(C)C)cc1)N1CCc2nc(C(=O)Nc3ccccc3N)sc2C1 [Example 134, N-(2-aminophenyl)-5-{N-[4-(dimethylamino)phenyl]ethanimidoyl}-4,5,6,7-tetrahydro[1,3]thiazolo[5,4-c]pyridine-2-carboxamide] | ≥ 0.2 µM |
| Nc1ccccc1NC(=O)c1nc2c(s1)CN(C(=O)C(=O)Nc1cnc3ccccc3c1)CC2 [Example 77, N-(2-aminophenyl)-5-[oxo(quinolin-3-ylamino)acetyl]-4,5,6,7-tetrahydro-[1,3]thiazolo[5,4-c]pyridine-2-carboxamide] | ≥ 0.2 µM |
| CC(C)c1ccc(N)c(NC(=O)c2nc3c(s2)CN(C(=O)Nc2ccc(N(C)C)cc2)CC3)c1 [Example 50, N^2-(2-amino-5-isopropylphenyl)-N^5-[4-(dimethylamino)phenyl]-6,7-dihydro[1,3]thiazolo[5,4-c]pyridine-2,5(4H)-dicarboxamide] | ≥ 0.2 µM |
| CN(C)c1ccc(NC(=C[N+](=O)[O-])N2CCc3nc(C(=O)Nc4ccccc4N)sc3C2)cc1 [Example 140, N-(2-aminophenyl)-5-[1-{[4-(dimethylamino)phenyl]amino}-2-nitrovinyl]-4,5,6,7-tetrahydro[1,3]thiazolo[5,4-c]pyridine-2-carboxamide] | ≥ 0.2 µM |
| COc1ccc(N)c(NC(=O)c2nc3c(s2)CN(C(=S)Nc2cccnc2)CC3)c1 [Example 107, N-(2-amino-5-methoxyphenyl)-5-[(pyridin-3-ylamino)carbonothioyl]-4,5,6,7-tetrahydro[1,3]thiazolo[5,4-c]pyridine-2-carboxamide] | ≥ 0.2 µM |
| CC(C)c1ccc(N)c(NC(=O)c2nc3c(s2)CN(C(=S)Nc2ccccc2)CC3)c1 [Example 109, N-(2-amino-5-isopropylphenyl)-5-(anilinocarbonothioyl)-4,5,6,7-tetrahydro[1,3]thiazolo[5,4-c]pyridine-2-carboxamide] | ≥ 0.2 µM |
| Nc1ccccc1NC(=O)c1nc2c(s1)CN(c1ccc(C(F)(F)F)cn1)CC2 [Example 195, N-(2-aminophenyl)-5-[5-(trifluoromethyl)pyridin-2-yl]-4,5,6,7-tetrahydro[1,3]thiazolo[5,4-c]pyridine-2-carboxamide] | ≥ 0.2 µM |
| Nc1ccccc1NC(=O)c1nc2c(s1)CN(S(=O)(=O)c1cccs1)CC2 [Example 157, N-(2-aminophenyl)-5-(2-thienylsulfonyl)-4,5,6,7-tetrahydro[1,3]thiazolo[5,4-c]pyridine-2-carboxamide] | ≥ 0.2 µM |
| CN(C)c1ccc(NC(=O)N2CCc3nc(C(=O)Nc4cc(-c5cccs5)ccc4N)sc3C2)cc1 [Example 55, N^2-[2-amino-5-(2-thienyl)phenyl]-N^5-[4-(dimethylamino)phenyl]-6,7-dihydro[1,3]thiazolo[5,4-c]pyridine-2,5(4H)-dicarboxamide] | ≥ 0.2 µM |
| Nc1ccccc1NC(=O)c1nc2c(s1)CN(C(=O)Nc1cccc3cnccc13)CC2 [Example 62, N^2-(2-aminophenyl)-N^5-isoquinolin-5-yl-6,7-dihydro[1,3]thiazolo[5,4-c]pyridine-2,5(4H)-dicarboxamide] | ≥ 0.2 µM |
| COc1ccc(N)c(NC(=O)c2nc3c(s2)CN(C(=O)Nc2cccc4cnccc24)CC3)c1 [Example 46, N^2-(2-amino-5-methoxyphenyl)-N^5-isoquinolin-5-yl-6,7-dihydro[1,3]thiazolo[5,4-c]pyridine-2,5(4H)-dicarboxamide] | ≥ 0.2 µM |
| CCCCOC(=O)N1CCc2nc(C(=O)Nc3ccccc3N)sc2C1 [Example 187, Butyl 2-[(2-aminophenyl)carbamoyl]-6,7-dihydro[1,3]thiazolo[5,4-c]pyridine-5(4H)-carboxylate] | ≥ 0.2 µM |
| CN(C)c1ccc(NC(=O)C(=O)N2CCc3nc(C(=O)Nc4ccccc4N)sc3C2)cn1 [Example 71, N-(2-aminophenyl)-5-[{[6-(dimethylamino)pyridin-3-yl]amino}(oxo)acetyl]-4,5,6,7-tetrahydro[1,3]thiazolo[5,4-c]pyridine-2-carboxamide] | ≥ 0.2 µM |
| CCCCNC(=O)C(=O)N1CCc2nc(C(=O)Nc3cc(OC)ccc3N)sc2C1 [Example 83, N-(2-amino-5-methoxyphenyl)-5-[(butylamino)(oxo)acetyl]-4,5,6,7-tetrahydro[1,3]thiazolo[5,4-c]pyridine-2-carboxamide] | ≥ 0.2 µM |
| Cc1ccc(S(=O)(=O)Nc2ccc(N3CCc4nc(C(=O)Nc5ccccc5N)sc4C3)cc2)cc1 [Example 199, N-(2-aminophenyl)-5-(4-{[(4-methylphenyl)sulfonyl]amino}phenyl)-4,5,6,7-tetrahydro[1,3]thiazolo[5,4-c]pyridine-2-carboxamide] | ≥ 0.2 µM |
| COCCN(C)C(=O)N1CCc2nc(C(=O)Nc3ccccc3N)sc2C1 [Example 20, N^2-(2-aminophenyl)-N^5-(2-methoxyethyl)-N^5-methyl-6,7-dihydro[1,3]thiazolo[5,4-c]pyridine-2,5 (41:1)-dicarboxamide] | ≥ 0.2 µM |
